Measured values reported in patent publication US10370372B2, “Fused pyrimidine compound or salt thereof” (TAIHO PHARMACEUTICAL CO., LTD., priority 2015, dated 2019).
Like-named read-outs stand apart in the source and are kept apart here.

Experiments:
Format in all cases: cell-based
[1] = test system: AR positive human prostate cancer cells VCaP; experiment: Agonist activity for AR: cell proliferation rate of VCaP cells; conditions: 5-10000 nmol/L, 72 hours, relative to evaluation medium only, more than 10% = agonist activity
Procedure: Then, the number of viable cells was measured (test group). As a control, the cells were cultured after being added with the evaluation medium only, and the number of viable cells was measured (control group). The number of viable cells was measured by using CellTiter-Glo™ Luminescent Cell Viability Assay (Promega). From the measured number of viable cells, cell proliferation rate with respect to the compound of Examples or the compound of Comparative Examples was calculated based on the number of viable cells measured in the case of using the evaluation medium only. Cell proliferation rate (%)=(Number of viable cells in test group−Number of viable cells in control group)/(Number of viable cells in control group)×100
By considering an error in the number of viable cells measured in the case of using the evaluation medium only, when the cell proliferation rate was more than 10% at any concentration of the 8 concentrations which had been evaluated, it was determined to have an agonist activity for AR.

[2] = test system: Human prostate cancer cells LNCaP; experiment: Inhibitory activity on androgen-dependent proliferation of prostate cancer cells; conditions: 1 nmol/L DHT, 72 hours, Cell Counting Kit-8, read-out: Proliferation inhibition concentration GI50 value
Procedure: Human prostate cancer cells LNCaP (Non-Patent Literature 5) having […] androgen receptor gene were seeded in a clear bottom 96 well microplate (BD) at 4.0×10^3/well with phenol red free RPMI1640 containing 5% DCC-FBS (hereinbelow, the medium is referred to as an evaluation medium), and then cultured overnight. […] Then, the number of viable cells was measured. The number of viable cells was measured by using Cell Counting Kit-8 (DOJINDO LABORATORIES).

AR expression in LNCaP = experiment: Activity of reducing expression level of androgen receptor (Western blotting in LNCaP); conditions: Homo sapiens, read-out: AR expression reducing activity
Procedure: AR positive human prostate cancer cells LNCaP were seeded in a 6 well microplate (BD) at 3.5×10^5/well with RPMI1640 containing 5% FBS (hereinbelow, the medium is referred to as an evaluation medium), and then cultured overnight. […] After culture for 48 hours, the medium was removed and the cells were washed with PBS and added with 0.1 mL of Lysis buffer (M-PER added with Protease Inhibitor Cocktail), followed by keeping at 4° C. for 20 minutes. After cell lysis, the cell solution was centrifuged to recover the supernatant as cell lysate. […] The antibody-reacting band (anti AR receptor) was quantified by LAS Imaging System (FUJIFILM) using Super Signal West Dura Substrate (Thermo Scientific) as a detection reagent.
When the AR expression reducing activity is 50% or more, it is described as “reduced”.

human androgen receptor = molecular target: T1, human androgen receptor (Homo sapiens, UniProt P10275); experiment: Antagonist activity for AR: MMTV-luc reporter transcription in COS-7 cells transfected with human AR, stimulated with DHT
T1 construct: expressed in transfected cells; host or cells: COS-7 cells (ATCC)
T1 sequence (P10275 1-920): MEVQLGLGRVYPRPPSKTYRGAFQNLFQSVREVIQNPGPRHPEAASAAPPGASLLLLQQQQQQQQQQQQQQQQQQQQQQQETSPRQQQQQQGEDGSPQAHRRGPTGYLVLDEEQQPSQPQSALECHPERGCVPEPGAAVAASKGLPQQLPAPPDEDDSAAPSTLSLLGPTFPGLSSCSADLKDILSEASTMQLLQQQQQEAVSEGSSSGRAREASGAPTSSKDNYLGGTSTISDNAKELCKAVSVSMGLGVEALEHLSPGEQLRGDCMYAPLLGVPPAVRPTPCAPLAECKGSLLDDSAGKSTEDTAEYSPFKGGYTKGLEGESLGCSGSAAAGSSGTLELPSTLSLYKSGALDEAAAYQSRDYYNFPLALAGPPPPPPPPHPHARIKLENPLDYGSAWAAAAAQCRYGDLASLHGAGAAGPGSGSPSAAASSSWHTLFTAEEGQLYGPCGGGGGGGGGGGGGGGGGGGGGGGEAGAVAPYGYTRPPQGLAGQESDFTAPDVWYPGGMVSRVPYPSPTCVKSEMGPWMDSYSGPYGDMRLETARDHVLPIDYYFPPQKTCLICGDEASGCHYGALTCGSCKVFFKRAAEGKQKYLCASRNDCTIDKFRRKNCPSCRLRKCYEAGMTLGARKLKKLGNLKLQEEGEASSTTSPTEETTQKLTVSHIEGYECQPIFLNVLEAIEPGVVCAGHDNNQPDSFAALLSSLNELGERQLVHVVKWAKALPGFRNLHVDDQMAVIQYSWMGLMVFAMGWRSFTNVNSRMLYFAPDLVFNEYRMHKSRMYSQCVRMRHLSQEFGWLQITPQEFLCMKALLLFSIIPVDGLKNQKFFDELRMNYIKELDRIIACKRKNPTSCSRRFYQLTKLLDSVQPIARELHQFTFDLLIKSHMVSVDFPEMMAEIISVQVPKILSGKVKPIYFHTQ
Procedure: Antagonist activity for AR was evaluated according to the following method. COS-7 cells (ATCC) were transfected with pMMTV-luc vector (reporter plasmid having, as an androgen response element, […] long terminal repeat) and pEX-hAR vector (human androgen receptor expression vector: which expresses human AR gene under control of CMV promoter) by using Nucleofector (registered trademark) Kit R (Lonza) as a transfection reagent and Amaxa (Lonza). The COS-7 cells obtained after transfection were seeded in a clear bottom 96 well microplate (BD) at 1.5×10^4/well with phenol red free RPMI1640 containing 10% charcoal-treated fetal bovine serum (hereinbelow, DCC-FBS) (hereinbelow, the medium is referred to as an evaluation medium), and then cultured overnight. […] Then, the transcription activity value of the reporter plasmid was measured. The transcription activity was measured by using Bright-Glo™ Luciferase Assay System (Promega).

[3] = 10000 nmol/L, 48 hours, vs evaluation medium control
[4] = COS-7 cells with pMMTV-luc and pEX-hAR, 1 nmol/L DHT, 24 hours, read-out: AR antagonist IC50

IC50 (human androgen receptor; [4]) [nM] | Compound | Cell proliferation rate (%) [1] [%] | GI50 [2] [nM] | inhibition at 10 µM (AR expression in LNCaP; 48 h) [%] | IC50 (human androgen receptor) [nM] | inhibition at 10 µM (AR expression in LNCaP; [3]) [%]
 | CC(C)(O)c1ccc(Nc2ncnc3c2CCN(c2ccc([N+](=O)[O-])c(Br)c2)C3)nc1 [Example 17, 2-(6-((7-(3-bromo-4-nitrophenyl)-5,6,7,8-tetrahydropyrido[3,4-d]pyrimidin-4-yl)amino)pyridin-3-yl)propan-2-ol] | 9.7 | 1200 | > 50 | 30 | 
 | CCNC(=O)c1ccc(Nc2ncnc3c2CCN(c2ccc(C#N)c(C(F)(F)F)c2)C3)nc1 [Example 5, 6-((7-(4-cyano-3-(trifluoromethyl)phenyl)-5,6,7,8-tetrahydropyrido[3,4-d]pyrimidin-4-yl)amino)-N-ethylnicotinamide] | −1.9 | 120 | > 50 | 100 | 
 | CC(=O)N1CCN(CCCOc2ccc(Nc3ncnc4c3CCN(c3ccc(C#N)c(Cl)c3)C4)cc2C(F)(F)F)CC1 [Example 43, 4-(4-((4-(3-(4-acetylpiperazin-1-yl)propoxy)-3-(trifluoromethyl)phenyl)amino)-5,6-dihydropyrido[3,4-d]pyrimidin-7(8H)-yl)-2-chlorobenzonitrile] | 8.4 | 380 | > 50 | 300 | 
 | N#Cc1ccc(N2CCc3c(ncnc3Nc3ccc(C(=O)NC4CC4)nn3)C2)cc1C(F)(F)F [Example 9, 6-((7-(4-cyano-3-(trifluoromethyl)phenyl)-5,6,7,8-tetrahydropyrido[3,4-d]pyrimidin-4-yl)amino)-N-cyclopropylpyridazine-3-carboxamide] | −3.0 | 510 | > 50 | 30 | 
 | N#Cc1ccc(N2CCc3c(ncnc3Nc3ccc4c(c3)CNCC4)C2)cc1Cl [Example 37, 2-Chloro-4-(4-((1,2,3,4-tetrahydroisoquinolin-7-yl)amino)-5,6-dihydropyrido[3,4-d]pyrimidin-7(8H)-yl)benzonitrile] | 4.6 | 990 | > 50 | 690 | 
180 | O=C(NCC(F)(F)F)c1ccc(Nc2ncnc3c2CCN(c2ccc([N+](=O)[O-])c(C(F)(F)F)c2)C3)nn1 [Example 24, 6-((7-(4-Nitro-3-(trifluoromethyl)phenyl)-5,6,7,8-tetrahydropyrido[3,4-d]pyrimidin-4-yl)amino)-N-(2,2,2-trifluoroethyl)pyridazine-3-carboxamide] | 7.8 | 790 |  |  | > 50
 | CCNC(=O)c1ccc(Nc2ncnc3c2CCN(c2ccc(C#N)c(Cl)c2)C3)nc1F [Example 1, 6-((7-(3-Chloro-4-cyanophenyl)-5,6,7,8-tetrahydropyrido[3,4-d]pyrimidin-4-yl)amino)-N-ethyl-2-fluoronicotinamide] | 9.7 | 83 | > 50 | 2.6 | 
 | N#Cc1ccc(N2CCc3c(ncnc3Nc3ccc(C(=O)N4CCCCCC4)cn3)C2)cc1C(F)(F)F [Example 6, 4-(4-((5-(azepane-1-carbonyl)pyridin-2-yl)amino)-5,6-dihydropyrido[3,4-d]pyrimidin-7(8H)-yl)-2-(trifluoromethyl)benzonitrile] | −1.0 | 55 | > 50 | 130 | 
 | CC(C)(O)c1ccc(Nc2ncnc3c2CCN(c2ccc([N+](=O)[O-])c(C(F)(F)F)c2)C3)nc1 [Example 14, 2-(6-((7-(4-nitro-3-(trifluoromethyl)phenyl)-5,6,7,8-tetrahydropyrido[3,4-d]pyrimidin-4-yl)amino)pyridin-3-yl)propan-2-ol] | 1.4 | 1200 | > 50 | 70 | 
 | N#Cc1ccc(N2CCc3c(ncnc3Nc3ccc(OC(F)(F)F)cc3)C2)cc1C(F)(F)F [Example 27, 4-(4-((4-(trifluoromethoxy)phenyl)amino)-5,6-dihydropyrido[3,4-d]pyrimidin-7(8H)-yl)-2-(trifluoromethyl)benzonitrile] | 3.8 | 1000 | > 50 | 1000 | 
32 | CC(C)(O)c1ccc(Nc2ncnc3c2CCN(c2ccc([N+](=O)[O-])c(Cl)c2)C3)nc1 [Example 13, 2-(6-((7-(3-Chloro-4-nitrophenyl)-5,6,7,8-tetrahydropyrido[3,4-d]pyrimidin-4-yl)amino)pyridin-3-yl)propan-2-ol] | 7.3 | 300 |  |  | > 50
 | CC(C)(C)OC(=O)NCCNC(=O)c1ccc(Nc2ncnc3c2CCN(c2ccc(C#N)c(C(F)(F)F)c2)C3)nn1 [Example 8, tert-butyl (2-(6-((7-(4-cyano-3-(trifluoromethyl)phenyl)-5,6,7,8-tetrahydropyrido[3,4-d]pyrimidin-4-yl)amino)pyridazine-3-carboxamido)ethyl)carbamate] | 5.3 | 1100 | > 50 | 59 | 
19 | COc1cc(N2CCc3c(ncnc3Nc3ccc(C(C)(C)O)cn3)C2)ccc1C#N [Example 23, 4-(4-((5-(2-Hydroxypropan-2-yl)pyridin-2-yl)amino)-5,6-dihydropyrido[3,4-d]pyrimidin-7(8H)-yl)-2-methoxybenzonitrile] | 2.3 | 2600 |  |  | > 50
1300 | CC(C)Oc1cc(N2CCc3c(ncnc3Nc3ccc(C(C)(C)O)cn3)C2)ccc1[N+](=O)[O-] [Example 19, 2-(6-((7-(3-isopropoxy-4-nitrophenyl)-5,6,7,8-tetrahydropyrido[3,4-d]pyrimidin-4-yl)amino)pyridin-3-yl)propan-2-ol] | 7.8 | 220 |  |  | > 50

Compound | IC50 (human androgen receptor; [4]) [nM] | Cell proliferation rate (%) [1] [%] | GI50 [2] [nM] | inhibition at 10 µM (AR expression in LNCaP; 48 h) [%] | IC50 (human androgen receptor) [nM] | inhibition at 10 µM (AR expression in LNCaP; [3]) [%]
CC(C)(C)OC(=O)N1CCc2ccc(Nc3ncnc4c3CCN(c3ccc(C#N)c(Cl)c3)C4)cc2C1 [Example 36, tert-Butyl 7-((7-(3-chloro-4-cyanophenyl)-5,6,7,8-tetrahydropyrido[3,4-d]pyrimidin-4-yl)amino)-3,4-dihydroisoquinoline-2(1H)-carboxylate] | 180 | 4.9 | 150 | > 50 |  | 
